Where two headings read alike, the source gives them in different places. Some results are limits rather than exact numbers.

Among the data in patent US20120207763A1, “PYRROLOPYRIMIDINE COMPOUNDS AND THEIR USES” (ASTEX THERAPEUTICS LIMITED, priority 2006, published 2012) are IC50 values, retold here.

Common to all, as to assay type: biochemical
Assay [1] addresses T1, JAK-3 (Homo sapiens, UniProt P52333).
T1 construct: GST fusion constructs of the kinase domains of both enzymes are used; GST
The assay can be described thus: JAK LANCE enzymatic assay (JAK-3). The text has this: Binding of cytokines and certain growth factors to their respective receptors trigger activation of Janus kinases, which phosphorylate members of the STAT family. Phosphorylated STAT molecules dimerize and migrate to the nucleus where they bind to DNA and initiate transcription of responsive genes. Inhibitors of pathways downstream of cytokine/growth factor receptors have therapeutic potential for several indications. An enzymatic assay for JAK-3 and JAK-2 has been developed to identify T-cell selective inhibitors. GST fusion constructs of the kinase domains of both enzymes are used and a biotinylated, tyrosine containing peptide serves as substrate. Phosphorylation of this peptide by the respective kinase is quantified with an europium-labeled anti-phosphotyrosine antibody (Eu-PT66) as energy donor and a streptavidin-allophycocyanine conjugate (SA-APC) as energy acceptor. The assay has been established in a 384 well format.
In the JAK LANCE™ assay, a biotinylated peptide is incubated together with compounds and ATP in buffer. The phosphorylation reaction starts after addition of JAK kinase. After incubation at RT the reaction is stopped with EDTA and the product detected by addition Streptavidin-Allophycocyanin and Europium-labeled antiphosphotyrosine antibody. The signal is measured using an EnVision Reader. Exc: 320 nm, Em, Donor: 615 nm and Em, Acceptor: 665 nm in time resolved fashion with a delay of […].

For assay [2], the target named is CDK2/Cyclin-A kinase complex (Homo sapiens, UniProt P24941). The assay can be described thus: CDK2 IMAP fluorescence polarization assay. As to conditions: Table E; read-out: CDK2cyA IMAP/IC50 [umol l − 1]. The source says: In order to test the CDK2 activity of the compounds of the invention, the CDK2 assay is a flourescence polarization assay, where the enzyme is a purified active CDK2/Cyclin-A kinase complex and the substrate is a synthesized peptide derived from Histone H1. This assay utilizes the IMAP technology from Molecular Devices. The active CDK2/Cyclin-A complex phosphorylates the peptide substrate, which is conjugated with the TAMRA tag. The phosphorylated site is then recognized by a metal containing molecule that interacts with the TAMRA tag to induce a high flourescence polarization. The compounds that inhibit the CDK2 kinase activity would inhibit the flourescence output of the assay.
Background: Fluorescence polarisation rises when a labelled molecule tumbles more slowly, as on binding a larger partner.

The target of assay [3] is CDK4 (Homo sapiens, UniProt P11802). The experiment in a line: CDK4 HTRF assay. As to conditions: Table E; read-out: CDK4 HTRF/IC50 [umol l − 1].
[4] abbreviates: Table B, read-out: Jak-3 Lance/ IC50 [nmol I-1].

Chain of CDK4 (P11802 whole entry): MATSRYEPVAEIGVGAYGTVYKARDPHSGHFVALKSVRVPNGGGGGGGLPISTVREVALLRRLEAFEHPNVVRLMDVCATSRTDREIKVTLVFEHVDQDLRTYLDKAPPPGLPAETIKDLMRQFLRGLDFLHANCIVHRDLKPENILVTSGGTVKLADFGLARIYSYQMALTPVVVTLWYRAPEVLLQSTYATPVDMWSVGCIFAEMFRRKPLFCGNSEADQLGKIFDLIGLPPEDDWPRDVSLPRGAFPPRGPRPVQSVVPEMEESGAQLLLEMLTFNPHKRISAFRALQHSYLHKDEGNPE
Chain of CDK4 (P24385 whole entry partner): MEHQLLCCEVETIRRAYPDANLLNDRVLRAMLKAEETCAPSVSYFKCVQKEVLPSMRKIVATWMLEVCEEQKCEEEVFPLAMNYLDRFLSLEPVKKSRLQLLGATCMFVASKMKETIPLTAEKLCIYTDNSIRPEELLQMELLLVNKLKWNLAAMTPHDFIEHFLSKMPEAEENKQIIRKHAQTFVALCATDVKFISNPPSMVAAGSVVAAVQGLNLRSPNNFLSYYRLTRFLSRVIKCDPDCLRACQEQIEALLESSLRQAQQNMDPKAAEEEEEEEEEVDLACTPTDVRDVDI
T1 sequence (P52333 822-1111 limits assumed): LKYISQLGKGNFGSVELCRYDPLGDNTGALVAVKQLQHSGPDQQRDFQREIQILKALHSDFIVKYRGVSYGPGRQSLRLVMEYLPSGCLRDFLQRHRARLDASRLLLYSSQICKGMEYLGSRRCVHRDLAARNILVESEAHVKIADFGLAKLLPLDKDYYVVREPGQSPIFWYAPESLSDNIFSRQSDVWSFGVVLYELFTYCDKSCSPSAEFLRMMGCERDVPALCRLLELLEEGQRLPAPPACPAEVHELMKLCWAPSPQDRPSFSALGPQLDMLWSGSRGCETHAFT

For the compound `CCC(CC)N1C(=O)Cc2cnc(Nc3ccc(N4CCCCC4)cc3)nc21`, in assay [1] (Table A, read-out: Jak-3/ IC50), the IC50 is no less than 0.1 µM.
With `CCC(CC)N1C(=O)Cc2cnc(Nc3cccc(NC(=O)c4ccncc4)c3)nc21`, the IC50 in assay [1] (Table A, read-out: Jak-3/ IC50) is no more than 0.1 µM.
For the compound `CCC(CC)n1cc(C)c2cnc(Nc3ccc(N4CCN(C)CC4)cc3)nc21` [drawing 103], the IC50 in assay [1] (setting [4]) is no less than 0.1 µM.
Regarding `CCC(CC)n1c(=O)[nH]c2cnc(Nc3ccc(N4CCN(C(C)=O)CC4)cc3)nc21`, the IC50 in assay [1] (Table A, read-out: Jak-3/ IC50) was no less than 0.1 µM.
As to `CCC(CC)N1C(=O)Cc2cnc(Nc3ccc(-n4cncn4)cc3)nc21`, in assay [1] (Table A, read-out: Jak-3/ IC50), the IC50 was no less than 0.1 µM.
As to `CCC(CC)N1C(=O)Cc2cnc(Nc3ccc(C(=O)N4CCOCC4)cc3)nc21`, the IC50 in assay [1] (Table A, read-out: Jak-3/ IC50) was no less than 0.1 µM.
For `CCNC(=O)c1ccc(Nc2ncc3c(n2)N(C(CC)CC)C(=O)C3)cc1`, the IC50 in assay [1] (Table A, read-out: Jak-3/ IC50) is no more than 0.1 µM.
In the case of `Cc1cn(C2CCCC2)c2nc(Nc3ccc(N4CCNCC4)cn3)ncc12` [drawing 97], the IC50 in assay [1] (setting [4]) is no less than 0.1 µM.
For the compound `CCC(CC)N1C(=O)Cc2cnc(Nc3ccc(C(=O)NC(C)(C)C)cc3)nc21`, the IC50 in assay [1] (Table A, read-out: Jak-3/ IC50) was no less than 0.1 µM.
On to `CCC(c1ccccc1)N1C(=O)Cc2cnc(Nc3cccc(OCCN4CCCC4)c3)nc21` (stereo not shown), for which the IC50 in assay [1] (Table A, read-out: Jak-3/ IC50) was no less than 0.1 µM.
The same measure, in the same setting: as for `CCC(CC)N1C(=O)Cc2cnc(Nc3ccc(N4CCN(C)CC4)nc3)nc21`, the figure is no less than 0.1 µM.
As to `Cc1cn(C2CCCC2)c2nc(Nc3ccc(N4CCN(C)CC4)cc3)ncc12`, the IC50 in assay [1] (setting [4]) was no less than 0.1 µM.
Regarding `COc1ccc(C(=O)N2CCN(C)CC2)cc1Nc1ncc2c(n1)NC(=O)C2` [drawing 18], the IC50 in assay [1] (Table A, read-out: Jak-3/ IC50) was no less than 0.1 µM.
Regarding `CN1CCN(c2ccc(Nc3ncc4c(n3)NC(=O)C4)cc2)CC1`, the IC50 in assay [1] (Table A, read-out: Jak-3/ IC50) was no less than 0.1 µM.
Take `CCC(CC)N1C(=O)Cc2cnc(Nc3ccc4[nH]ncc4c3)nc21`: the IC50 in assay [1] (Table A, read-out: Jak-3/ IC50) is no less than 0.1 µM.
With `CCC(CC)N1C(=O)C(C)(C)c2cnc(Nc3ccc(N4CCNCC4)cc3)nc21` [drawing 112], in assay [1] (setting [4]), the IC50 was no less than 0.1 µM.
Take `CCC(CC)N1C(=O)Cc2cnc(Nc3ccc(N4CCN(S(C)(=O)=O)CC4)cc3)nc21`: the IC50 in assay [1] (Table A, read-out: Jak-3/ IC50) is no more than 0.1 µM.
With `CCC(CC)N1C(=O)Cc2cnc(Nc3ccc(N4CCN(C)CC4)c(F)c3)nc21`, the IC50 in assay [1] (Table A, read-out: Jak-3/ IC50) was no more than 0.1 µM.
`Cc1cn(C2CCCCC2)c2nc(Nc3ccc(N4CCN(C)CC4)cc3)ncc12` [drawing 115]: the IC50 in assay [1] (setting [4]) is no less than 0.1 µM.
As to `CN1CCN(c2ccc(Nc3ncc4c(n3)N(C3CCCC3)C(=O)C4)cc2)CC1`, in assay [1] (Table A, read-out: Jak-3/ IC50), the IC50 was no less than 0.1 µM.
As to `CCC(CC)n1c(C=O)cc2cnc(Nc3ccc(N4CCN(C(C)=O)CC4)cc3)nc21` [drawing 118], the IC50 in assay [1] (setting [4]) was no more than 0.1 µM.
For the compound `CCC(CC)n1c(C)cc2cnc(Nc3ccc(C(=O)NC4CCCC4)cc3)nc21` [drawing 124], the IC50 in assay [1] (setting [4]) is no less than 0.1 µM.
Consider `CC(=O)N1CCN(c2ccc(Nc3ncc4c(C)cn(C5CCCCC5)c4n3)cc2)CC1` [drawing 120], for which, in assay [1] (setting [4]), the IC50 was no less than 0.1 µM.
As for `CCC(CC)n1ccc2cnc(Nc3ccc(N4CCN(C(C)=O)CC4)cn3)nc21` [drawing 81], the IC50 in assay [1] (Table A, read-out: Jak-3/ IC50) is no less than 0.1 µM.
For the compound `CCC(CC)N1C(=O)Cc2cnc(Nc3cccc(NCCN4CCCC4)c3)nc21`, the IC50 in assay [1] (Table A, read-out: Jak-3/ IC50) was no more than 0.1 µM.
Consider `Cc1cn(C2CCCC2)c2nc(Nc3ccccc3C#N)ncc12` [Example 301], for which the IC50 in assay [2] is greater than 10 µM; in assay [3], 10 µM.
Consider `Cc1cn(C2CCCC2)c2nc(Nc3ccc(F)cc3)ncc12` [Example 442], for which the IC50 in assay [2] is less than 10 µM; in assay [3] it was 10 µM.
Turning to `CCN(CC)c1ccc(Nc2ncc3ccn(C4CCCC4)c3n2)cc1` [Example 261], the figures for the IC50 in assay [2] and in assay [3] were less than 10 µM and greater than 10 µM, respectively.
For `Cc1cn(C2CCCC2)c2nc(Nc3ccccc3[N+](=O)[O-])ncc12` [Example 295] the same measures were greater than 10 µM and 10 µM.
For `Cc1cccnc1Nc1ncc2c(C)cn(C3CCCC3)c2n1` [Example 297], in that order: greater than 10 µM and 10 µM.
As for `Cc1cn(C2CCCC2)c2nc(Nc3ccc(N4CCN(S(C)(=O)=O)CC4)cn3)ncc12` [Example 287], the results for the IC50 in assay [2] and in assay [3] were greater than 10 µM and 10 µM, respectively.
For the compound `Cc1cn(C2CCCCC2)c2nc(Nc3ccc(N4CCNCC4)cn3)ncc12` [Example 426], the IC50 in assay [2] is greater than 10 µM; in assay [3] it was less than 1 µM.
Consider `Cc1cn(C2CCCC2)c2nc(Nc3cccc(Cl)c3)ncc12` [Example 299], for which the IC50 in assay [2] is less than 10 µM; in assay [3], 10 µM.
In the case of `Cc1cc(-c2c(C)c3cnc(Nc4ccc(N5CCNCC5)cn4)nc3n2C2CCCC2)[nH]n1` [Example 404], the results for the IC50 in assay [2] and in assay [3] were greater than 10 µM and less than 1 µM, respectively.
Turning to `CCC(CC)n1c(-c2cnco2)cc2cnc(Nc3ccc(N4CCN(C(C)=O)CC4)cc3)nc21` [Example 363, 1-(4-{4-[7-(1-Ethyl-propyl)-6-oxazol-5-yl-7H-pyrrolo[2,3-d]pyrimidin-2-ylamino]-phenyl}-piperazin-1-yl)-ethanone], the IC50 in assay [2] and in assay [3] was less than 1 µM throughout.
Take `c1cc(N2CCNCC2)ccc1Nc1ncc2ccn(C3CCCCC3)c2n1` [Example 246]: the IC50 in assay [2] and in assay [3] was less than 1 µM throughout.
Take `Cc1cn(C2CCCC2)c2nc(Nc3ccccc3Cl)ncc12` [Example 443]: the IC50 is greater than 10 µM in assay [2] and 10 µM in assay [3].
Regarding `CC1CCCC(n2ccc3cnc(Nc4ccc(N5CCNCC5)cc4)nc32)C1` (stereo not shown) [Example 242], the results for the IC50 in assay [2] and in assay [3] were less than 10 µM and less than 1 µM, respectively.
For `Cc1cn(-c2cccnc2)c2nc(Nc3ccc(N4CCNCC4)cn3)ncc12` [Example 447], in that order: greater than 10 µM and 10 µM.
Consider `COc1cccc(Nc2ncc3c(C)cn(C4CCCC4)c3n2)c1` [Example 294], for which the IC50 in assay [2] is less than 10 µM; in assay [3], 10 µM.
For `Cc1ccc(Nc2ncc3ccn(C4CCCC4)c3n2)nc1` [Example 434], in that order: greater than 10 µM and greater than 10 µM.
For `c1cc(N2CCNCC2)ccc1Nc1ncc2ccn(C34CC5CC(CC(C5)C3)C4)c2n1` [Example 245] the same measures were less than 1 µM and less than 1 µM.
Consider `Cc1cn(-c2ccccc2)c2nc(Nc3ccc(N4CCNCC4)cc3)ncc12` [Example 273], for which the IC50 in assay [2] and in assay [3] was greater than 10 µM throughout.
In the case of `c1cc(N2CCNCC2)ccc1Nc1ncc2ccn(C3CCCC3)c2n1` [Example 256], the figures for the IC50 in assay [2] and in assay [3] were less than 10 µM and less than 1 µM, respectively.
For `CCC(CC)n1ccc2cnc(Nc3ccc(N4CCNCC4)cc3)nc21` [Example 202, [7-(1-Ethyl-propyl)-7H-pyrrolo[2,3-d]pyrimidin-2-yl]-(4-piperazin-1-yl-phenyl)-amine], the IC50 was less than 10 µM in assay [2] and less than 1 µM in assay [3].
`Brc1cn(C2CCCC2)c2nc(Nc3ccc(N4CCNCC4)cn3)ncc12` [Example 432]: the IC50 in assay [2] and in assay [3] was greater than 10 µM in each case.
Take `CC1CCC(n2ccc3cnc(Nc4ccc(N5CCNCC5)cc4)nc32)CC1` (stereo not shown) [Example 240]: the IC50 in assay [2] was less than 10 µM; in assay [3], less than 1 µM.
For the compound `Cc1cn(C2CC2)c2nc(Nc3ccc(N4CCNCC4)cc3)ncc12` [Example 276], the IC50 in assay [2] and in assay [3] was greater than 10 µM throughout.
Take `OC1CCCC(n2ccc3cnc(Nc4ccc(N5CCNCC5)cc4)nc32)C1` (stereo not shown) [Example 244]: the IC50 in assay [2] and in assay [3] was less than 1 µM throughout.
Consider `Cc1c(C(=O)O)n(C2CCCC2)c2nc(Nc3ccc(N4CCNCC4)cn3)ncc12` [Example 444], for which the IC50 in assay [2] was greater than 10 µM; in assay [3] it was less than 1 µM.
`c1ncc(-c2ccc(Nc3ncc4ccn(C5CCCC5)c4n3)cc2)o1` [Example 258]: the IC50 is less than 10 µM in assay [2] and greater than 10 µM in assay [3].
Regarding `CCC(CC)n1c(C(=O)Nc2ccccc2)cc2cnc(Nc3ccc(N4CCNCC4)cc3)nc21` [Example 345], the IC50 was less than 10 µM in assay [2] and less than 1 µM in assay [3].
On to `Cc1ccc(Nc2ncc3ccn(C4CCCC4)c3n2)cc1` [Example 435], for which the IC50 was less than 10 µM in assay [2] and greater than 10 µM in assay [3].
For `COC(=O)c1c(C)c2cnc(Nc3ccc(N4CCNCC4)cn3)nc2n1C1CCCC1` [Example 384, 7-Cyclopentyl-5-methyl-2-(5-piperazin-1-yl-pyridin-2-ylamino)-7H-pyrrolo[2,3-d]pyrimidine-6-carboxylic acid methyl ester] the same measures were greater than 10 µM and less than 1 µM.
`COC(=O)c1c(C)n(C2CCCC2)c2nc(Nc3ccc(N4CCNCC4)cn3)ncc12` [Example 385, 7-Cyclopentyl-6-methyl-2-(5-piperazin-1-yl-pyridin-2-ylamino)-7H-pyrrolo[2,3-d]pyrimidine-5-carboxylic acid methyl ester]: the IC50 in assay [2] and in assay [3] was greater than 10 µM throughout.
